Reference: PubChem BioAssay AID1963866 (Molecular Pharmacology Branch, DTP, NCI, 2024)

Test system: PDC KRAS tumor spheroids with HUVEC/MSC, viability
Experiment: Anticancer human tumor 349418-098-R-PDC patient-derived lung adenocarcinoma cell line growth inhibition [KRAS2]
Settings: for IC50: curve of first compound; for viability, T/C: stronger effect = lower value
Source text: Multicellular complex tumor spheroid response to RAS pathway inhibitors in combination with a targeted agents in patient-derived cell lines with oncogenic KRAS variants from multiple cancer types
A high-throughput screen of multi-cell type tumor spheroids was designed to identify active combinations of targeted small molecules and KRAS pathway inhibitors. Complex spheroids include a stromal component modeled by human endothelial cells (HUVEC) and fibroblasts modeled by human mesenchymal stem cells (MSCs). The concentration ranges selected for each drug and investigational agent were based upon clinically achievable concentrations if the clinical Cmax of the agent was known.
Compounds. The drugs and investigational agents: BI-3406 (NSC825286), BAY-293 (NSC824723), batoprotafib (TNO155; NSC825523), sotorasib (AMG 510; NSC818433), MRTX1257 (NSC819558), elimusertib (BAY 1895344; NSC800525), molibresib (GSK525762; NSC774829), temuterkib (LY3214996; NSC803410), venetoclax (NSC766270), alisertib (NSC759677), olaparib (NSC753686), talazoparib (NSC767125), erdafitinib (NSC781556), ipatasertib (NSC767898), cabozantinib (NSC761068), nintedanib (NSC756659), abemaciclib (NSC768073), docetaxel (NSC628503), trametinib (NSC758246), and sapanisertib (NSC764658) were obtained from the National Cancer Institute (NCI) Developmental Therapeutics Program Chemical Repository. The FDA-approved anticancer drug set is available from the Developmental Therapeutics Program. […] The stock solutions were prepared in dimethyl sulfoxide (DMSO, Sigma-Aldrich, St. Louis, MO, cat. D2650) at 800-fold the tested concentration and stored at -70 degrees C prior to their use. All drugs and investigational agents were tested over a range starting from a high concentration at or near the clinical Cmax and decreasing in half-log increments. If the clinical Cmax for an agent had not been determined, the highest concentration tested was 10 microM.
Cell Culture. All cells were maintained in an incubator at 37 degrees C and 5% CO2 with 95% humidity. The PDC lines were cultured according to standard operating procedures established by the NCI PDMR (https://pdmr.cancer.gov/sops/default.htm). Briefly, all PDCs were thawed and cultured in Matrigel-coated flasks prepared with a working solution of 1X Ham's F-12 nutrient mix, without supplementation (Invitrogen, Waltham, MA, cat. 11765054), 100 U/mL penicillin-streptomycin (Invitrogen, cat. 15140122), and 2.5% Matrigel (Corning Inc., Corning, NY, cat. 354248) for the first three passages. All PDCs were cultured in complete DMEM/F-12 media containing advanced DMEM/F-12 (Invitrogen, cat. 12634028), 4.9% defined fetal bovine serum, heat inactivated (HyClone Laboratories Inc., Logan, UT, cat. SH30070.03HI), 389 ng/mL hydrocortisone (Sigma-Aldrich, cat. H4001), 9.7 ng/mL human EGF recombinant protein (Invitrogen, cat. PHG0313), 23.4 microg/mL adenine (Sigma-Aldrich, cat. A2786), 97.3 U/mL penicillin-streptomycin (Invitrogen, cat. 15140122), 1.9 mM L-glutamine (Invitrogen, cat. 25030081), and 9.7 microM Y-27632 dihydrochloride (Tocris Bioscience, Bristol, United Kingdom, cat. 1254). The PDCs were cultured in complete DMEM/F12 media without 9.7 microM Y-27632 dihydrochloride for at least two passages prior to the screen. The established cell line HOP-62 was cultured in RPMI 1640 medium, HEPES (Invitrogen, cat. 22400105) with 10% defined fetal bovine serum (HyClone Laboratories Inc., cat. SH30070.03) and 2 mM L-glutamine (Invitrogen, cat. 25030081). The pooled donor HUVEC were cultured in endothelial cell growth medium 2 (PromoCell, Heidelberg, Germany, cat. C-22011) and the hMSC were cultured in mesenchymal stem cell growth medium 2 (PromoCell, cat. C-28009). For all experiments, HUVEC and hMSC were used at passages </=5, while the malignant cell lines were used at passages </=15. […]

[1] = second compound 0.1 µM, first compound 0.0316 µM
[2] = second compound 0.1 µM, first compound 0.1 µM
[3] = second compound 0.1 µM, first compound 0.316 µM
[4] = second compound 0.1 µM, first compound 1 µM
[5] = second compound 0.1 µM, first compound 3.16 µM
[6] = second compound 0.1 µM, first compound 10 µM
[7] = second compound 0.316 µM, first compound 0.0316 µM
[8] = second compound 0.316 µM, first compound 0.1 µM
[9] = second compound 0.316 µM, first compound 0.316 µM
[10] = second compound 0.316 µM, first compound 1 µM
[11] = second compound 0.316 µM, first compound 3.16 µM
[12] = second compound 0.316 µM, first compound 10 µM
[13] = second compound 1 µM, first compound 0.0316 µM
[14] = second compound 1 µM, first compound 0.1 µM
[15] = second compound 1 µM, first compound 0.316 µM
[16] = second compound 1 µM, first compound 1 µM
[17] = second compound 1 µM, first compound 3.16 µM
[18] = second compound 1 µM, first compound 10 µM
[19] = second compound 3.16 µM, first compound 0.0316 µM
[20] = second compound 3.16 µM, first compound 0.1 µM
[21] = second compound 3.16 µM, first compound 0.316 µM
[22] = second compound 3.16 µM, first compound 1 µM
[23] = second compound 3.16 µM, first compound 3.16 µM
[24] = second compound 3.16 µM, first compound 10 µM
[25] = second compound 10 µM, first compound 0.0316 µM
[26] = second compound 10 µM, first compound 0.1 µM
[27] = second compound 10 µM, first compound 0.316 µM
[28] = second compound 10 µM, first compound 1 µM
[29] = second compound 10 µM, first compound 3.16 µM
[30] = second compound 10 µM, first compound 10 µM
[31] = second compound 0.1 µM, first compound 0.00316 µM
[32] = second compound 0.1 µM, first compound 0.01 µM
[33] = second compound 0.316 µM, first compound 0.00316 µM
[34] = second compound 0.316 µM, first compound 0.01 µM
[35] = second compound 1 µM, first compound 0.00316 µM
[36] = second compound 1 µM, first compound 0.01 µM
[37] = second compound 3.16 µM, first compound 0.00316 µM
[38] = second compound 3.16 µM, first compound 0.01 µM
[39] = second compound 10 µM, first compound 0.00316 µM
[40] = second compound 10 µM, first compound 0.01 µM
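Further: spheroids exposed to compounds for seven days before readout.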

Structure (SMILES) | IC50 (second compound 0.1 µM) [nM] | IC50 (second compound 0.316 µM) [nM] | IC50 (second compound 1 µM) [nM] | IC50 (second compound 3.16 µM) [nM] | IC50 (second compound 10 µM) [nM] | viability, T/C [1] [%] | viability, T/C [2] [%] | viability, T/C [3] [%] | viability, T/C [4] [%] | viability, T/C [7] [%] | viability, T/C [8] [%] | viability, T/C [9] [%] | viability, T/C [10] [%] | viability, T/C [13] [%] | viability, T/C [14] [%] | viability, T/C [15] [%] | viability, T/C [19] [%] | viability, T/C [20] [%] | viability, T/C [25] [%] | viability, T/C [26] [%] | further results
CC(C)NCC(C(=O)N1CCN(c2ncnc3c2C(C)CC3O)CC1)c1ccc(Cl)cc1 (stereo not given) + C=CC(=O)N1CCN(c2nc(=O)n(-c3c(C)ccnc3C(C)C)c3nc(-c4c(O)cccc4F)c(F)cc23)C(C)C1 | 287 | 275 | 184 | 107 | < 31.6 | 101 | 79.6 | 44.7 | 26.6 | 87.2 | 80.5 | 40.6 | 27 | 89.1 | 73.1 | 28.9 | 61.1 | 52.9 | 35.1 | 18.2 | viability, T/C [5]: 14.2%; viability, T/C [6]: 7.87%; viability, T/C [11]: 14.1%; viability, T/C [12]: 6.33%; viability, T/C [16]: 15.6%; viability, T/C [17]: 12.7%; viability, T/C [18]: 5.98%; viability, T/C [21]: 23.3%; viability, T/C [22]: 15.2%; viability, T/C [23]: 9.31%; viability, T/C [24]: 5.92%; viability, T/C [27]: 15.9%; viability, T/C [28]: 9.76%; viability, T/C [29]: 7.72%; viability, T/C [30]: 5.23%
CC1(C)CCC(CN2CCN(c3ccc(C(=O)NS(=O)(=O)c4ccc(NCC5CCOCC5)c([N+](=O)[O-])c4)c(Oc4cnc5[nH]ccc5c4)c3)CC2)=C(c2ccc(Cl)cc2)C1 + C=CC(=O)N1CCN(c2nc(=O)n(-c3c(C)ccnc3C(C)C)c3nc(-c4c(O)cccc4F)c(F)cc23)C(C)C1 | 1740 | 1760 | 1160 | 538 | < 31.6 | 99.6 | 91.4 | 91.7 | 85.1 | 92.5 | 92.2 | 82.6 | 78.7 | 78.4 | 80.5 | 75.4 | 59.6 | 58.2 | 32.7 | 33.7 | viability, T/C [5]: 12.4%; viability, T/C [6]: 3.05%; viability, T/C [11]: 20.4%; viability, T/C [12]: 3.58%; viability, T/C [16]: 55.6%; viability, T/C [17]: 12.9%; viability, T/C [18]: 2.8%; viability, T/C [21]: 52.6%; viability, T/C [22]: 44.2%; viability, T/C [23]: 13.1%; viability, T/C [24]: 3.37%; viability, T/C [27]: 31.9%; viability, T/C [28]: 32.5%; viability, T/C [29]: 6.8%; viability, T/C [30]: 5.41%
CCN1CCN(Cc2ccc(Nc3ncc(F)c(-c4cc(F)c5nc(C)n(C(C)C)c5c4)n3)nc2)CC1 + C=CC(=O)N1CCN(c2nc(=O)n(-c3c(C)ccnc3C(C)C)c3nc(-c4c(O)cccc4F)c(F)cc23)C(C)C1 | 6.77 | 7.65 | 7.4 | 4.46 | < 3.16 | 21.8 | 18 | 15.4 | 4.22 | 20.9 | 19.5 | 14.6 | 4.52 | 21.7 | 15 | 15.7 | 18.5 | 18.4 | 12.8 | 8.96 | viability, T/C [31]: 71.8%; viability, T/C [32]: 37.4%; viability, T/C [33]: 76.3%; viability, T/C [34]: 41.9%; viability, T/C [35]: 75.9%; viability, T/C [36]: 40.6%; viability, T/C [16]: 2.9%; viability, T/C [37]: 55.4%; viability, T/C [38]: 39.6%; viability, T/C [21]: 16.6%; viability, T/C [22]: 2.48%; viability, T/C [39]: 25.3%; viability, T/C [40]: 14.2%; viability, T/C [27]: 8.17%; viability, T/C [28]: 0.93%
Cn1ncnc1[C@H]1c2n[nH]c(=O)c3cc(F)cc(c23)N[C@@H]1c1ccc(F)cc1 + C=CC(=O)N1CCN(c2nc(=O)n(-c3c(C)ccnc3C(C)C)c3nc(-c4c(O)cccc4F)c(F)cc23)C(C)C1 | > 100 | > 100 | > 100 | > 100 | < 0.316 | 88.1 | 87 | – | – | 83 | 75.7 | – | – | 64.6 | 64.6 | – | 61.1 | 56.3 | 34.3 | 30.5 | viability, T/C (second compound 0.1 µM, first compound 0.000316 µM): 101%; viability, T/C (second compound 0.1 µM, first compound 0.001 µM): 95.4%; viability, T/C [31]: 94.5%; viability, T/C [32]: 92.3%; viability, T/C (second compound 0.316 µM, first compound 0.000316 µM): 95.2%; viability, T/C (second compound 0.316 µM, first compound 0.001 µM): 88.4%; viability, T/C [33]: 86.8%; viability, T/C [34]: 87.6%; viability, T/C (second compound 1 µM, first compound 0.000316 µM): 81.1%; viability, T/C (second compound 1 µM, first compound 0.001 µM): 79.3%; viability, T/C [35]: 80.5%; viability, T/C [36]: 73.3%; viability, T/C (second compound 3.16 µM, first compound 0.000316 µM): 65.8%; viability, T/C (second compound 3.16 µM, first compound 0.001 µM): 66.6%; viability, T/C [37]: 58.1%; viability, T/C [38]: 60.9%; viability, T/C (second compound 10 µM, first compound 0.000316 µM): 39%; viability, T/C (second compound 10 µM, first compound 0.001 µM): 43.6%; viability, T/C [39]: 43.9%; viability, T/C [40]: 29.1%
